{"source": "patent US7589080B2", "about": "“β-cyclodextrin compositions, and use to prevent transmission of sexually transmitted diseases” (priority 2000, dated 2009)", "key": {"HIV-infected H9 cells": {"test_system": "HIV-infected H9 cells", "assay": "Syncytium assay with HIV-1 infected cells", "type": "cell-based", "settings": "for Syncytia (/HPF): with HIV-infected H9 cells", "description": "(§1) Syncytium assays were carried out essentially as previously described (Hildreth and Orentas, supra, 1989). Briefly, cell lines or PHA blasts were treated with 20 mM 2-OH-βCD in RPMI 1640 or medium alone for 1 hr at 37° C. before washing twice with PBS. The treated cells were then mixed with HIV-1 infected cells, each at density of 2×10^6/ml, in cRPMI and incubated at 37° C. Syncytia were scored and photographed 3 to 6 hr after mixing. For free-virus mediated syncytium assays (“fusion from without”), HIV-1RF from infected PM1 culture supernatants were clarified by 0.45 Tm filtration (p24 concentration greater than 500 ng/ml). 2-OH-βCD-treated and non-treated cell lines were added to the virus preparations and incubated at 37° C. for 3 hr before counting syncytia.\nCD4+SupTl T cells formed numerous large syncytia within 3 hr after the addition of HIV-1MN-infected H9 cells. […] No syncytia were apparent in this culture for more than 15 hr, which can reflect the recovery time for cholesterol in the βCD treated T cells. 2-OH-βCD was washed out after the 1 hr treatment and was not present during the co-cultivation step. As such, the effects are not a result of a steric blockade by 2-OH-βCD, which can bind to cells.\nThe effect of βCD treatment on HIV-induced fusion of several other cell lines also was examined. Four CD4+, CXCR4+cell lines, SupT1, H9, PM1, and MT2, were treated with 2-OH-βCD and tested for syncytium formation with HIV-1-infected cells."}, "HIV-1RF": {"test_system": "HIV-1RF", "assay": "Free-virus mediated syncytium assay (fusion from without)", "type": "cell-based", "settings": "MT2, SupT1, PM1; HIV-1RF >500 ng/ml p24, 3 hr at 37° C", "description": "as §1\nThe effect of cholesterol depletion on virus-cell fusion (“fusion from without”) was also determined."}, "[1]": {"test_system": "CXCR4, CD4 and CD45 on PHA blasts", "assay": "Immunostaining and confocal microscopy of PHA blasts", "type": "cell-based", "description": "Cell-surface staining of 2-OH-βCD-treated and untreated cells was performed under saturating conditions. 2-OH-βCD-treated and untreated PHA blasts (3×10^5) were washed in cold PBS and pre-incubated on ice for 15 min in 5% NGS/PBS. Cells were then incubated with MAb 1-5 μg in 5% NGS/PBS 45 min on ice, washed with PBS and then incubated with 2 μg of FITC-GAM in 5% NGS/PBS. The cells were then fixed with 2% paraformaldehyde in PBS and spun onto poly-L-lysine coated slides using cyto-funnels. The pellets were overlaid with 50 μl of 25% glycerol in PBS and a coverslip was positioned over the droplet. The edges of the slides were sealed with nail polish before storing them at 4° C. This staining procedure was also performed with cells prefixed with 2% paraformaldehyde in PBS prior to MAb staining. Viewing of slides was performed with an Olympus IX50 confocal microscope under oil immersion at 100x magnification. Micrographs were acquired onto a Silicon Graphics Workstation with Intervision software. Final images were enhanced on the Silicon Graphics Workstation by two-dimensional deconvolution, and brightness and contrast were adjusted for viewing.\nPatchy staining of CXCR4 persisted after 2-OH-βCD treatment whether the cells were fixed before or after mAb staining. […]"}, "HIV": {"test_system": "HIV", "assay": "Luciferase-based single cycle infectivity assay in LuSIV cells", "type": "cell-based, HIV-1", "settings": "LuSIV cells treated with 20 mM; all viral input levels", "description": "(§2) The effect of 2-OH-βCD on infectivity of HIV was measured in a Luciferase-based single cycle infection assay as previously described (Liao et al., supra, 2000). LuSIV cells were treated with 20 mM 2-OH-βCD in iRPMI or iRPMI alone for 1 hr at 37° C. Cells were then washed with iRPMI before being resuspended in cRPMI at a density of 2×10^6/ml. Cells in 100 Tl were mixed with cRPMI or with dilutions of virus supernatant (62 to 500 pg/ml of p24) from 2-OH-βCD-treated or untreated PM1 cells and allowed to incubate overnight (16 hr) at 37° C. The LuSIV cells were washed with PBS and lysed with 100 Tl of Reporter Lysis Buffer (Promega). After centrifugation at 13,000×g for 30 seconds, 10, μl of lysate were added to 100 μl Luciferase Reagent (Promega) in an opaque 96 well plate and luminescence was measured on a Packard Lumicount luminometer (Downers Grove, Ill.).\nThe effects of βCD treatment on HIV infectivity were measured in a sensitive single-cycle infection assay based on a cell line transfected with an LTR-luciferase cassette. […] Quantitative measurements of single round infection are obtained with this assay system (Roos et al., Virology 273:307-315, 2000, which is incorporated herein by reference). […]"}, "HIV-1": {"test_system": "HIV-1", "assay": "Virus production and infectivity of virions from cholesterol-depleted cells", "type": "cell-based", "description": "PM1 cells chronically infected with HIV-1RF were washed and treated with 20 mM 2-OH-βCD in cRPMI or with cRPMI alone for 1 hr at 37° C. The cells were then washed twice before resuspension at a density of 5×10^6/ml in cRPMI. The cells were incubated for 6 hrs at 37° C., 5% CO2 and pelleted by centrifugation. Supernatants, which contained the virus, were collected and purified by centrifugation through a 20% sucrose cushion (Liao et al., supra, 2000). The virus pellets were taken up in cRPMI and titrated against LuSIV cells to determine infectivity. P24 was measured in a standard p24 ELISA.\nas §2, with “The LuSIV cells were washed with PBS and lysed with 100 Tl of Reporter Lysis Buffer (Promega).” left out"}}}
{"substance": "2-hydroxypropyl-β-cyclodextrin [2-OH-βCD]", "values": [{"measurement": "Syncytium formation of SupT1 cells with HIV-1MN-infected H9 cells", "setting": "HIV-infected H9 cells; 1 hr treatment, washed out before co-cultivation", "value": "completely inhibited"}, {"measurement": "Syncytia (/HPF)", "setting": "HIV-infected H9 cells; H9 cells treated with 20 mM", "value": "0 /HPF"}, {"measurement": "Syncytia (/HPF)", "setting": "HIV-infected H9 cells; MT2 cells treated with 20 mM", "value": "0 /HPF"}, {"measurement": "Syncytia (/HPF)", "setting": "HIV-infected H9 cells; PM1 cells treated with 20 mM", "value": "0 /HPF"}, {"measurement": "Syncytium formation with HIV-1-infected cells", "setting": "HIV-infected H9 cells; SupT1, H9, PM1 and MT2 cell lines, in each case", "value": "completely blocked"}, {"measurement": "Syncytia (/HPF)", "setting": "HIV-infected H9 cells; SupT1 cells treated with 20 mM", "value": "0 /HPF"}, {"measurement": "Time without apparent syncytia", "setting": "HIV-infected H9 cells; treated SupT1 cells with HIV-1MN-infected H9 cells", "value": "more than 15 hr"}, {"measurement": "Syncytium formation on exposure to free virus", "setting": "HIV-1RF", "value": "no syncytium formation"}, {"measurement": "Distribution of CXCR4 on the cell surface", "setting": "[1]; PHA blasts after cholesterol depletion", "value": "not significantly redistributed"}, {"measurement": "Distribution of CD4 and CD45 on the cell surface", "setting": "[1]; PHA blasts after treatment", "value": "unchanged"}, {"measurement": "Reduction of HIV infection of LuSIV cells", "setting": "HIV", "value": "~100", "unit": "%"}, {"measurement": "Infectivity of virions from cholesterol-depleted cells", "setting": "HIV-1", "value": "significantly less infectious"}, {"measurement": "Production of HIV-1 virions from cholesterol-depleted cells", "setting": "HIV-1", "value": "dramatically decreased"}]}
